# Experimental data from patent publication US20260265240A1, “PREPARATION METHOD FOR SALT FORM AND CRYSTAL FORM OF 2,6-PIPERIDINEDIONE COMPOUND AND USE THEREOF” (ZHANGZHOU PIEN TZE HUANG PHARMACEUTICAL CO., LTD., priority 2023, published 2026).
# Where a name gives a salt, the structure may show the parent alone.
# Assays:
# [1] = Pharmacokinetic evaluation in mice; type: in vivo, C57BL/6 or C57 mice; conditions: male, C57BL/6, mouse, plasma, intravenous injection 2 mg/kg, fasted, read-out: Apparent Volume of Distribution
# Source text: C57BL/6 or C57 male mice were selected as the test animals for this study. The LC/MS/MS method was employed to quantitatively determine the plasma drug concentrations at various time points after intravenous injection or intragastric administration of the test compound, aiming to evaluate the pharmacokinetic characteristics of the compound of the present disclosure in mice.
# C57BL/6 or C57 mice (male, 20 to 30 g, 7 to 10 weeks old, Beijing Vital River).
# A clear solution of the test compound was injected intravenously into the tail vein of C57BL/6 mice (fasted overnight) (vehicle: 10% DMSO/10% solutol/80% H2O), or administered intragastrically to C57 mice (fed). […] The mixture was thoroughly vortexed and mixed, and centrifuged at 6000 g for 3 minutes at 2 to 8° C. […] The mixture was thoroughly vortexed and mixed, and centrifuged at 6000 g for 3 minutes at 2 to 8° C. Plasma drug concentrations were determined by the LC-MS/MS method, and relevant pharmacokinetic parameters were calculated using Phoenix WinNonlin 8.2.0 pharmacokinetic software with non-compartmental model linear-log trapezoidal method.
# [2] = Pharmacokinetic evaluation in beagle dogs; type: in vivo; conditions: male, dog, plasma, intravenous injection 0.5 mg/kg, fed
# Experimental: Male beagle dogs were selected as the experimental animals in this study.
# Beagle dogs (male, 7 to 10 kg, Beijing Mars Biotechnology Co., Ltd.).
# A clear solution of the test compound was slowly injected intravenously into beagle dogs (fed) via the peripheral vein (vehicle: […]/10% Solutol/85% H2O), or administered intragastrically to beagle dogs (fed). For intravenous administration, 0.5 mL of blood was collected from the peripheral vein at 0.083, 0.25, 0.5, 1, 2, 4, 6, 8, and 24 h after administration, placed in EDTA-2K anticoagulant tubes, and centrifuged at 3200 g for 10 minutes at 2 to 8° C. to separate the supernatant. For intragastric administration, 0.5 mL of blood was collected from the peripheral vein at 0.083, 0.25, 0.5, 1, 2, 4, 6, 8, and 24 h after administration, placed in EDTA-2K anticoagulant tubes, and centrifuged at 3200 g for 10 minutes at 2 to 8° C. to separate the supernatant. Plasma drug concentrations were determined by the LC-MS/MS method, and relevant pharmacokinetic parameters were calculated using Phoenix WinNonlin 6.3 pharmacokinetic software with non-compartmental model linear-log trapezoidal method.
structure (smiles),measurement,setting,value
O=C1CCC(c2noc3ccc4c(NC(=O)CN5CCN(C[C@H]6CC[C@H](n7cc(NC(=O)c8coc(-c9ccnc(NCC%10CC%10)c9)n8)c(C(F)F)n7)CC6)CC5)cccc4c23)C(=O)N1 (stereo partly drawn) [Hydrochloride of Compound of Formula (I)],Vd,[1],1.6 L/kg
same,clearance,[2],21.3 mL/min/kg
same,half-life,[2]; read-out: Elimination Half-Life (converted),5.03 h
